These are literature values, as cited in US20140105862A1, “STREPTOMYCES MICROFLAVUS STRAINS AND METHODS OF THEIR USE TO CONTROL PLANT DISEASES AND PESTS” (priority 2012, published 2014).

For one data set, the system named is powdery mildew. Conditions: according to GB 1 507 193.
For data set [1], the system named is parasites on animals, such as pin worm. Conditions: according to U.S. Pat. No. 3,849,398.
For data set [2], the system named is gram-positive, gram-negative bacteria and tubercule bacillus. As to conditions: according to U.S. Pat. No. 3,849,398.

On to `NC(N)=NCC(O)CC(O)(C(=O)O)[C@H]1O[C@@H](n2cc(CO)c(N)nc2=O)C=C[C@@H]1NC(=O)[C@@H](N)CO` (stereo partly drawn) [Strain B-98891], for which, in the data set on powdery mildew, the antifungal activity result is given as “antifungal activity”. For the compound `CNCC(=O)NC(CO)C(=O)NC1C(C(N)=O)OC(n2ccc(N)nc2=O)C(O)C1O` (stereo not drawn) [gougerotin], in data set [1], the parasiticidal action result is reported as “parasiticidal action”. Further, the antibacterial activity entry in data set [2] is “weak antibacterial activity”.
